# According to patent US20180340001A1, “Probes for 18F Positron Emission Tomography Imaging” (The Texas A&M University System, priority 2017, published 2018):
# Assays:
# [1] = pH 7.5
# [2] = MicroPET/CT imaging, in vivo stability in nude mice; details: for free [18F]-fluoride signal / release in vivo: murine model, up to 3 hours post-injection
# Description: (§1) The stability of [^18F]-1 was first investigated in phosphate buffer solution (1×PBS). […] The stability of [^18F]-1 was further evaluated in a murine model. The probe [^18F]-1 (0.1 mCi) was injected into female nude mice and static microPET scans were obtained at 3 hours after the injection.
# MicroPET imaging were acquired at 3 h post injection. For PET image acquiring, a female nude mouse was injected with 0.1 mCi of [^18F]-1 via the tail vein. At 3 hour post injection, the mouse was anesthetized using isoflurane (2% in oxygen), then placed into imaging chambers equipped with a heated coil to maintain body temperature and gas anesthesia. The static microPET acquisitions were then achieved and reconstructed for analysis.
# [3] = In vitro stability of [18F]-1 in 1×PBS by radio-HPLC; format: physicochemical; details: incubation time 3 hours
# Description: as §1
# After HPLC purification, [^18F]-1 was re-injected into HPLC for a radio profile standard. Then, the probe was added with 10×PBS to reconstruct the solution to IX PBS and 0.1 N NaOH to adjust pH to 7, respectively. After 1 hour and 3 hours incubation, a fraction of [^18F]-1 was injected into HPLC. The radio purity was calculated based on the integration of the product peak and other minor peaks.
SMILES,free fluoride signal / release of free fluoride [1],hydrolytic stability (in words) [1],free [18F]-fluoride signal / release in vivo ([2]; listed as IMe-PF5),pseudo-first order rate constant (kobs) of hydrolysis [1] [min⁻¹],radiochemical purity after incubation [3] [%],"localization in microPET/CT images ([2]; female nude mice, 0.1 mCi via tail vein, static scan 3 h after injection)","bone uptake ([2]; female nude mice, 0.1 mCi, 3 h post-injection)","route of clearance ([2]; female nude mice, 0.1 mCi, microPET/CT 3 h after injection)",free [18F]-fluoride signal / release in vivo [2],free [18F]-fluoride signal / release in vivo ([2]; listed as 18F—PFS-carbene)
"Cn1cc[n+](C)c1[P-](F)(F)(F)(F)F [Compound 1, IMe-PF5]",not observed,highly water stable,not observed,–,–,–,–,–,–,–
"Cn1cc[n+](C)c1[P-](F)(F)(F)(F)c1ccccc1 [Compound 2, (NHC)PF4Ph]",–,highly water stable,–,2.3e-05,–,–,–,–,–,–
Cn1cc[n+](C)c1[P-](F)(F)(F)(F)F [[^18F]-1],–,–,–,–,> 98,obvious localization in the bladder,No bone uptake was observed,cleared through the urinary track,insignificant,not observed
